Patent US11440887B2, “Substituted 1,2,3,4-tetrahydroquinolines as inhibitors of repair enzyme 8-oxoguanine deoxyribonucleic acid glycosylase activity” (The Board of Trustees of the Leland Stanford Junior …, priority 2017, dated 2022)

Target: OGG1 (Homo sapiens (Human), UniProt O15527)
Assay: OGG1 inhibitor assay with fluorogenic OGR1 probe (base excision, initial rates)
Type: biochemical
Conditions: for Enzyme activity, % of control at 2 μM: 2 μM compound; for Enzyme activity, % of control at 2 μM / Enzyme activity, % of control at 20 μM / Enzyme activity, % of control at 200 nM: ratio of initial rate slope (first 12 min) to no-compound control; for Enzyme activity, % of control at 20 μM: 20 μM compound; for IC50: initial rates method
Description: Methods: Synthesized compounds and hOGG1 (100 nM) were incubated in NEBuffer 4 (1×) with BSA (1×) at 37° C. (15 min) in 100 μL reaction volumes in a black 96-well plate. (See, e.g., Edwards, S. K., et al., ChemBioChem 2015, 16, 1637-1646, the disclosure of which is incorporated herein by reference.) After that, OGR1 (1.2 μM) was added to the reaction mixture. Fluorescence at 460 nm was measured on a Thermo Fluoroskan Ascent FL fluorescence plate reader (λex=355 nm). The slope of initial rate (12 min) was calculated, and % of control was used for inhibition activity. BSA, hOGG1 and NEBuffer 4 were purchased from New England Biolabs and used. UltraPure Distilled Water (Invitrogen) was purchased and used for the assay.

OGG1, sequence (O15527 whole entry): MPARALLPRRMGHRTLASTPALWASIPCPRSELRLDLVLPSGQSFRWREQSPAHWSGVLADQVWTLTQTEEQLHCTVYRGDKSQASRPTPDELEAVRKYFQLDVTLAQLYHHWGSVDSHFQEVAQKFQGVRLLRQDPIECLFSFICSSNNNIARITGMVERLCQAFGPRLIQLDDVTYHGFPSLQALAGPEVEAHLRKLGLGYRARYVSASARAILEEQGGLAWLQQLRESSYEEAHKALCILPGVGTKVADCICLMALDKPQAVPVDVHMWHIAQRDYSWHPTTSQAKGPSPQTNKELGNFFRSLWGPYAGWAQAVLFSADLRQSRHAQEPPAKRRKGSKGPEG

Structure (SMILES) | Enzyme activity, % of control at 2 μM | Enzyme activity, % of control at 20 μM | Enzyme activity, % of control at 200 nM (200 nM compound) | IC50 [µM] | inhibition of activity at 200 nM (200 nM compound)
CCOc1ccc(S(=O)(=O)Nc2ccc3c(c2)N(C(=O)CC)CCC3)cc1 [Compound 2] | 51 ± 1.4 % of control | 3.7 ± 0.83 % of control | – | – | –
CCOc1ccc(S(=O)(=O)Nc2ccc3c(c2)N(C(=O)Cc2ccccc2)CCC3)cc1 [Compound 3] | ≥100 % of control | 79 % of control | – | – | –
CCOc1ccc(S(=O)(=O)Nc2ccc3c(c2)N(C(=O)CCOC)CCC3)cc1 [Compound 4] | 93 % of control | 51 % of control | – | – | –
CCOc1ccc(S(=O)(=O)Nc2ccc3c(c2)N(C(=O)C(C)C)CCC3)cc1 [Compound 5] | 96 % of control | 52 % of control | – | – | –
CCOc1ccc(S(=O)(=O)Nc2ccc3c(c2)N(C(=O)C(C)(C)C)CCC3)cc1 [Compound 6] | – | ≥100 % of control | – | – | –
CCOc1ccc(S(=O)(=O)Nc2ccc3c(c2)N(C(=O)C2CC2)CCC3)cc1 [Compound 7] | 41 ± 1.7 % of control | 5.8 ± 1.9 % of control | 82 ± 12 % of control | 1.1 | –
CCOc1ccc(S(=O)(=O)Nc2ccc3c(c2)N(C(=O)C2CCC2)CCC3)cc1 [Compound 8] | 69 % of control | 33 % of control | – | – | –
CCOc1ccc(S(=O)(=O)Nc2ccc3c(c2)N(S(=O)(=O)CC)CCC3)cc1 [Compound 9] | 96 % of control | 92 % of control | – | – | –
CCOc1ccc(S(=O)(=O)Nc2ccc3c(c2)N(C(=O)NC2CC2)CCC3)cc1 [Compound 10] | 87 % of control | 77 % of control | – | – | –
CCOc1ccc(S(=O)(=O)Nc2ccc3c(c2)N(CC2CC2)CCC3)cc1 [Compound 11] | ≥100 % of control | 83 % of control | – | – | –
CCOc1ccc(S(=O)(=O)Nc2cccc(NC(C)=O)c2)cc1 [Compound 12] | 96 % of control | 70 % of control | – | – | –
CCOc1ccc(S(=O)(=O)Nc2ccc3c(c2)N(C(=O)CC)CC3)cc1 [Compound 13] | 95 % of control | ≥100 % of control | – | – | –
CCOc1ccc(S(=O)(=O)Nc2ccc3c(c2)N(C(=O)C2CC2)CCCC3)cc1 [Compound 14] | 76 % of control | 35 % of control | – | – | –
CCOc1ccc(S(=O)(=O)Nc2ccc3c(c2)N(C(=O)C2CC2)CCO3)cc1 [Compound 15] | 90 % of control | 41 % of control | – | – | –
CCOc1ccc(S(=O)(=O)Nc2cc3c(cc2OC)CCCN3C(=O)C2CC2)cc1 [Compound 16] | ≥100 % of control | 93 % of control | – | – | –
CCOc1ccc(S(=O)(=O)Nc2ccc3c(c2)CN(C(=O)C2CC2)CC3)cc1 [Compound 17] | 94 % of control | 88 % of control | – | – | –
CCOc1ccc(S(=O)(=O)N(O)c2ccc3c(c2)N(C(=O)C2CC2)CCC3)cc1 [Compound 18] | 79 % of control | 21 % of control | ≥100 % of control | – | –
CCOc1ccc(S(=O)(=O)N(C)c2ccc3c(c2)N(C(=O)C2CC2)CCC3)cc1 [Compound 19] | 84 % of control | 79 % of control | – | – | –
CCOc1ccc(C(=O)Nc2ccc3c(c2)N(C(=O)C2CC2)CCC3)cc1 [Compound 20] | ≥100 % of control | ≥100 % of control | – | – | –
CCOc1ccc(NC(=O)Nc2ccc3c(c2)N(C(=O)C2CC2)CCC3)cc1 [Compound 21] | ≥100 % of control | ≥100 % of control | – | – | –

Structure (SMILES) | Enzyme activity, % of control at 2 μM | Enzyme activity, % of control at 20 μM | Enzyme activity, % of control at 200 nM (200 nM compound) | IC50 [µM] | inhibition of activity at 200 nM (200 nM compound)
CCC(=O)N1CCCc2ccc(NS(=O)(=O)CC)cc21 [Compound 22] | 94 % of control | 74 % of control | – | – | –
CCCc1ccc(S(=O)(=O)Nc2ccc3c(c2)N(C(=O)C2CC2)CCC3)cc1 [Compound 23] | 35 % of control | 14 % of control | 74 % of control | – | –
CCCOc1ccc(S(=O)(=O)Nc2ccc3c(c2)N(C(=O)C2CC2)CCC3)cc1 [Compound 24] | 19 % of control | – | 95 % of control | – | –
CCNc1ccc(S(=O)(=O)Nc2ccc3c(c2)N(C(=O)C2CC2)CCC3)cc1 [Compound 25] | 58 % of control | 10 % of control | ≥100 % of control | – | –
CSc1ccc(S(=O)(=O)Nc2ccc3c(c2)N(C(=O)C2CC2)CCC3)cc1 [Compound 26] | 53 % of control | 3.6 % of control | 75 % of control | – | –
CCOc1ccc(S(=O)(=O)Nc2ccc3c(c2)N(C(=O)C2CC2)CCC3)cc1C [Compound 27] | 71 % of control | 22 % of control | – | – | –
O=C(C1CC1)N1CCCc2ccc(NS(=O)(=O)c3ccc(Oc4ccccc4)cc3)cc21 [Compound 28] | 41 ± 2.0 % of control | 8.3 % of control | ≥100 % of control | 1.5 | –
O=C(C1CC1)N1CCCc2ccc(NS(=O)(=O)c3ccc4oc5ccccc5c4c3)cc21 [Compound 29] | 82 % of control | 71 % of control | – | – | –
O=C(C1CC1)N1CCCc2ccc(NS(=O)(=O)c3ccc(-c4ccccc4)cc3)cc21 [Compound 30] | 29 ± 7.0 % of control | – | 90 ± 6.2 % of control | – | –
O=C(C1CC1)N1CCCc2ccc(NS(=O)(=O)c3ccc(C4CCCCC4)cc3)cc21 [Compound 31] | 25 % of control | – | 87 % of control | – | –
O=C(C1CC1)N1CCCc2ccc(NS(=O)(=O)c3ccc(N4CCOCC4)cc3)cc21 [Compound 32] | 76 % of control | – | 84 % of control | – | –
O=C(C1CC1)N1CCCc2ccc(NS(=O)(=O)c3ccc(-n4cccn4)cc3)cc21 [Compound 33] | 45 ± 1.3 % of control | 14 ± 3.2 % of control | 81 % of control | – | –
O=C(C1CC1)N1CCCc2ccc(NS(=O)(=O)c3ccc(-c4cccnc4)cc3)cc21 [Compound 34] | 23 ± 1.5 % of control | 2.0 % of control | 61 ± 1.3 % of control | 0.27 | ca. 40%
O=C(C1CC1)N1CCCc2ccc(NS(=O)(=O)c3ccc(-c4ccc(C(F)(F)F)cc4)cc3)cc21 [Compound 35] | 72 % of control | – | 97 % of control | – | –
COc1ccc(-c2ccc(S(=O)(=O)Nc3ccc4c(c3)N(C(=O)C3CC3)CCC4)cc2)cc1 [Compound 36] | 31 % of control | – | 79 % of control | – | –
COc1cccc(-c2ccc(S(=O)(=O)Nc3ccc4c(c3)N(C(=O)C3CC3)CCC4)cc2)c1 [Compound 37] | 13 % of control | – | 67 % of control | – | –
CN(C)c1cccc(-c2ccc(S(=O)(=O)Nc3ccc4c(c3)N(C(=O)C3CC3)CCC4)cc2)c1 [Compound 38] | – | – | 70 % of control | – | –
CNC(=O)c1cccc(-c2ccc(S(=O)(=O)Nc3ccc4c(c3)N(C(=O)C3CC3)CCC4)cc2)c1 [Compound 40] | – | – | 48 % of control | – | –
NNC(=O)c1sc2cccc(Cl)c2c1Cl [Compound O8, reference compound] | 69 % of control | 45 % of control | – | – | –
